Patent publication US20070167462A1, “Fungicidal mixtures” (priority 2004, published 2007)

Test system: Corticium sasakii
Assay: Activity against sheath blight on rice caused by Corticium sasakii (protective spray, rice plants cultivar Tai-Nong 67)
Type: in vivo
Conditions: untreated control 90% infection
Method: The active compounds, separately or jointly, were prepared as a stock solution comprising 0.25% by weight of active compound in acetone or DMSO. 1% by weight of the emulsifier Uniperol® EL (wetting agent having emulsifying and dispersing action based on ethoxylated alkylphenols) was added to this solution, and the mixture was diluted with water accordingly to the desired concentration.
Use example—Activity against sheath blight on rice caused by Corticium sasakii
Pots of rice plants of the cultivar “Tai-Nong 67” were sprayed to runoff point with an aqueous suspension having the concentration of active compound stated below. The next day, oat grains infected with Corticium sasakii were planted in the pots (in each case 5 grains per pot). The plants were then placed in a chamber at 26° C. and maximum atmospheric humidity. After […], the sheath blight on the untreated but infected control plants had developed to such an extent that the infection could be determined visually in %.
Evaluation is carried out by determining the infected leaf areas in percent. These percentages were converted into efficacies.
The efficacy (E) is calculated as follows using Abbot's formula: E=(1−αβ)·100 • α corresponds to the fungal infection of the treated plants in % and • β corresponds to the fungal infection of the untreated (control) plants in %
An efficacy of 0 means that the infection level of the treated plants corresponds to that of the untreated control plants; an efficacy of 100 means that the treated plants are not infected.
The expected efficacies of the mixtures of active compounds are determined using Colby's formula [R. S. Colby, Weeds, 15, 20-22 (1967)] and are compared with the observed efficacies.
Colby's formula: E=x+y−x·y/100 • E expected efficacy, expressed in % of the untreated control, when using the mixture of the active compounds A and B at the concentrations a and b • x efficacy, expressed in % of the untreated control, when using the active compound A at the concentration a
y efficacy, expressed in % of the untreated control, when using the active compound B at the concentration b

[1] = 4 ppm active compound in the spray liquor
[2] = 16 ppm active compound in the spray liquor

Structure (SMILES)	Efficacy in % of the untreated control [1]	Efficacy in % of the untreated control [2]
CC(C)Oc1cccc(NC(=O)c2ccccc2C(F)(F)F)c1 [II (flutolanil), N-(3-isopropoxyphenyl)-2-trifluoromethylbenzamide]	0%	31%
CC1CCN(c2c(-c3c(F)cc(F)cc3F)c(Cl)nc3ncnn23)CC1 [compound I, 5-chloro-7-(4-methylpiperidin-1-yl)-6-(2,4,6-trifluorophenyl)-[1,2,4]tri-azolo[1,5-a]pyrimidine]	31%	65%
